Activity calls are given as the source filed them. The rule behind the calls is not given here.

The values below come from ChEMBL document CHEMBL4680243, “N-benzyl 4,4-disubstituted piperidines as a potent class of influenza H1N1 virus inhibitors showing a novel mechanism of hemagglutinin fusion peptide interaction” (Eur J Med Chem, 2020).

In data set [1] the test system is Influenza A virus. As to the kind of experiment: Antiviral activity against Influenza A virus (A/PR 8/34 (H1N1)) clone 1 infected in MDCK cells assessed as reduction in virus-induced cytopathic effect measured after 72 hrs by MTS assay. The class given is functional, organism-based. Conditions: A/Puerto Rico/8/1934(H1N1).
A short description of data set [2]: Cytotoxicity against MDCK cells assessed as change in cell morphology measured after 72 hrs by microscopic analysis. The data set is classed as cell-based, Canis lupus familiaris. As to conditions: dog.
Data set [3] concerns Influenza A virus. Nature of the data set: Antiviral activity against Influenza A virus (A/PR 8/34 (H1N1)) infected in MDCK cells assessed as reduction in virus-induced cytopathic effect measured after 72 hrs by microscopic analysis. The data set is classed as functional, organism-based. Conditions: A/Puerto Rico/8/1934(H1N1).
In data set [4] the test system is Influenza A virus. As to the kind of experiment: Antiviral activity against Influenza A virus (A/PR 8/34 (H1N1)) infected in MDCK cells assessed as reduction in virus-induced cytopathic effect measured after 72 hrs by MTS assay. The class given is functional, organism-based. Conditions: A/Puerto Rico/8/1934(H1N1).
The subject of data set [5] is Influenza A virus. As to the kind of experiment: Antiviral activity against Influenza A virus (A/PR 8/34 (H1N1)) clone 1 infected in MDCK cells assessed as reduction in virus-induced cytopathic effect measured after 72 hrs by microscopic analysis. The data set is classed as functional, organism-based. Conditions: A/Puerto Rico/8/1934(H1N1).
Data set [6] in a line: Cytotoxicity against MDCK cells assessed as reduction in cell viability measured after 72 hrs by MTS assay. The data set is classed as cell-based, Canis lupus familiaris. As to conditions: dog.
The subject of data set [7] is Influenza A virus. Nature of the data set: Antiviral activity against Influenza A virus (A/PR 8/34 (H1N1)) infected in MDCK cells assessed as reduction in viral RNA synthesis at 20 uM treated at 1 hr post-infection by RT-qPCR analysis. The data set is classed as functional, organism-based. Conditions: A/Puerto Rico/8/1934(H1N1).
For data set [8], the target named is T1, Transmembrane protease serine 11D (Homo sapiens) (UniProt O60235).
T1 sequence (whole entry): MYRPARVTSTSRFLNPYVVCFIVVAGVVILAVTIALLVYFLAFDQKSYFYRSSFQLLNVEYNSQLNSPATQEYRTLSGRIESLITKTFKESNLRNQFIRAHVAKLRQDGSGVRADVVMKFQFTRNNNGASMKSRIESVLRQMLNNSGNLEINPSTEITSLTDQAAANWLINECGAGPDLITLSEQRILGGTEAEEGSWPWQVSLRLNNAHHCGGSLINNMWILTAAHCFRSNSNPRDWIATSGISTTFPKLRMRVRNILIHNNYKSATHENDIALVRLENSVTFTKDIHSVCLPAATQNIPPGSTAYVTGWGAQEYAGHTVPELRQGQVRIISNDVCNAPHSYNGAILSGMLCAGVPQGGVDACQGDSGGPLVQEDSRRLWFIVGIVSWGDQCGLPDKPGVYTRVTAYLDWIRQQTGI
As to the kind of experiment: Inhibition of recombinant human N-terminal His-tagged HAT (Ala42 to Ile418 residues) expressed in mouse NSO cells using Boc-Gln-Ala-Arg-AMC as substrate preincubated for 15 mins followed by substrate addition and measured for 60 mins by fluorescence assay. As to conditions: time 75.0 min.

For data set [9], the target named is Procathepsin L (Homo sapiens) (UniProt P07711). Nature of the data set: Inhibition of human liver cathepsin L using Z-Phe-Arg-AMC as substrate preincubated for 15 mins followed by substrate addition and measured for 60 mins by fluorescence assay. As to conditions: time 75.0 min.
Sequence of Procathepsin L (Homo sapiens) (P07711 114-333 limits assumed): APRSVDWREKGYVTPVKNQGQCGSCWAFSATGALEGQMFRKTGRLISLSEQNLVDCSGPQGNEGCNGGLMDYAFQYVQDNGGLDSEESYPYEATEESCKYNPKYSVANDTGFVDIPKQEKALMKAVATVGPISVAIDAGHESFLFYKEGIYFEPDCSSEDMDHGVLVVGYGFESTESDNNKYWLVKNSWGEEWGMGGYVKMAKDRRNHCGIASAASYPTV
Data set [10] addresses Cathepsin B (Homo sapiens) (UniProt P07858). As to the kind of experiment: Inhibition of human liver cathepsin B using Z-Phe-Arg-AMC as substrate preincubated for 15 mins followed by substrate addition and measured for 60 mins by fluorescence assay. As to conditions: time 75.0 min.
Data set [11] concerns the target T2, Cathepsin F (Homo sapiens) (UniProt Q9UBX1).
T2 sequence (whole entry): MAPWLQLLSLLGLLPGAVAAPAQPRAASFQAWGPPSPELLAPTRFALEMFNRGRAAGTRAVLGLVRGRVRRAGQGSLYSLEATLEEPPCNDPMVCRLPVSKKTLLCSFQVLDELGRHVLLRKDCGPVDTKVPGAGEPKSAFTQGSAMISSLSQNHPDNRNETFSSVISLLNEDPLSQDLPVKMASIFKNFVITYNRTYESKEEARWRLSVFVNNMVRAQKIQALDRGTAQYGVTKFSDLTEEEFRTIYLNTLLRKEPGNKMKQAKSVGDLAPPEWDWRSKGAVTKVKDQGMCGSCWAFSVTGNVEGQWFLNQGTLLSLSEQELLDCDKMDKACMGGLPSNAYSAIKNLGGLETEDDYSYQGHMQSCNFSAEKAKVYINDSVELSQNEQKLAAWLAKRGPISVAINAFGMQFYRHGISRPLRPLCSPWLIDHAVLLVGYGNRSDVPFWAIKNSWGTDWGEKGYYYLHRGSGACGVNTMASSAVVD
Nature of the data set: Inhibition of recombinant human cathepsin F expressed in baculovirus infected insect cells using Z-Phe-Arg-AMC as substrate preincubated for 15 mins followed by substrate addition and measured for 60 mins by fluorescence assay. As to conditions: time 75.0 min.

The target of data set [12] is T3, Trypsin (Homo sapiens) (UniProt P07477+P07478+P35030). As to the kind of experiment: Inhibition of human trypsin using Boc-Gln-Ala-Arg-AMC as substrate preincubated for 15 mins followed by substrate addition and measured for 60 mins by fluorescence assay. Conditions: time 75.0 min. The data set is classed as protein assay.
The target of data set [13] is Hemagglutinin (Influenza A virus (A/Puerto Rico/8/1934(H1N1))) (UniProt P03452). Nature of the data set: Inhibition of Influenza A virus (A/PR 8/34 (H1N1)) hemagglutinin infected in MDCK cells assessed as reduction in virus binding to cell surface at 200 uM relative to control. The data set is classed as cell-based.
Sequence of Hemagglutinin (Influenza A virus (A/Puerto Rico/8/1934(H1N1))) (P03452 whole entry): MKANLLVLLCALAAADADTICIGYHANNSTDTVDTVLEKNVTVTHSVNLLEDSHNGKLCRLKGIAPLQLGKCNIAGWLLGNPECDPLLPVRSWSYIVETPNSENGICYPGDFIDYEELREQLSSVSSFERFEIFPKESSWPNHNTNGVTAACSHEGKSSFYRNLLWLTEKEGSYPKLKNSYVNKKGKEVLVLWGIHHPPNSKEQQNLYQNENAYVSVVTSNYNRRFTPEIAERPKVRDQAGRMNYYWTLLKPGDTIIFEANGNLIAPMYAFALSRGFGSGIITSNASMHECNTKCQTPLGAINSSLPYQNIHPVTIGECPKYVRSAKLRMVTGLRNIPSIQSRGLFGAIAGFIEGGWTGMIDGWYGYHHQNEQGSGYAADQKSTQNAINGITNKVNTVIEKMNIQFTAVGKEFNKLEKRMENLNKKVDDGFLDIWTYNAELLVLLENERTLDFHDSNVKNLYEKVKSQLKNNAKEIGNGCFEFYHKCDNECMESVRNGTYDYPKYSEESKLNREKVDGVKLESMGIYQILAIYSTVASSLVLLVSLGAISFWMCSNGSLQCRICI
Data set [14] can be described thus: Selectivity index, ratio of CC50 for MDCK cells to EC50 for antiviral activity against Influenza A virus (A/Puerto Rico/8/1934(H1N1)) infected in MDCK cells. The class given is toxicity, cell-based. Conditions: dog, read-out: Ratio CC50/EC50.
Data set [15] relates to Influenza A virus. Nature of the data set: Antiviral activity against Influenza A virus (A/PR 8/34 (H1N1)) infected in MDCK cells assessed as reduction in viral RNA synthesis at 2 uM treated at 5 hrs post-infection by RT-qPCR analysis. The data set is classed as functional, organism-based. Conditions: A/Puerto Rico/8/1934(H1N1).
Data set [16] concerns the target T3, Trypsin (Homo sapiens). Nature of the data set: Inhibition of human trypsin at 1 uM using Boc-Gln-Ala-Arg-AMC as substrate preincubated for 15 mins followed by substrate addition and measured for 60 mins by fluorescence assay relative to control. The data set is classed as protein assay. As to conditions: time 75.0 min.
Data set [17] deals with T1, Transmembrane protease serine 11D (Homo sapiens). As to the kind of experiment: Inhibition of recombinant human N-terminal His-tagged HAT (Ala42 to Ile418 residues) expressed in mouse NSO cells at 1 uM using Boc-Gln-Ala-Arg-AMC as substrate preincubated for 15 mins followed by substrate addition and measured for 60 mins by fluorescence assay relative to control. Conditions: time 75.0 min.

Data set [18] deals with Cathepsin B (Homo sapiens) (UniProt P07858). As to the kind of experiment: Inhibition of human liver cathepsin B at 1 uM using Z-Phe-Arg-AMC as substrate preincubated for 15 mins followed by substrate addition and measured for 60 mins by fluorescence assay. Conditions: time 75.0 min.
Data set [19] addresses Procathepsin L (Homo sapiens) (UniProt P07711). As to the kind of experiment: Inhibition of human liver cathepsin L at 1 uM using Z-Phe-Arg-AMC as substrate preincubated for 15 mins followed by substrate addition and measured for 60 mins by fluorescence assay. As to conditions: time 75.0 min.
Data set [20] addresses T2, Cathepsin F (Homo sapiens). As to the kind of experiment: Inhibition of recombinant human cathepsin F expressed in baculovirus infected insect cells at 1 uM using Z-Phe-Arg-AMC as substrate preincubated for 15 mins followed by substrate addition and measured for 60 mins by fluorescence assay relative to control. As to conditions: time 75.0 min.

For the compound `NC(=O)c1ncn([C@@H]2O[C@H](CO)[C@@H](O)[C@H]2O)n1` [RIBAVIRIN], the EC50 with Influenza A virus [1] was 20 µM; with Influenza A virus [3], 22 µM; in the data set with Influenza A virus [4], 31 µM; in the data set with Influenza A virus [5], 11 µM. Besides, the MCC at 72 h in data set [2] worked out at 100 µM. The half-maximal cytotoxic concentration (CC50) at 72 h in [6] came to 58 µM.
On to `CCN(CC)CCCC(C)Nc1ccnc2cc(Cl)ccc12` (stereo not drawn), for which the result with Influenza A virus [7] was Active.
In the case of `CC(C)(C)OC(=O)N[C@@H](CC(=O)O)C(=O)N(Cc1ccc(F)cc1)C1(C(=O)NCc2ccccc2)CCNCC1`, the inhibition result (in data set [8]; in [9]; in data set [10]; in data set [11]; at Trypsin (Homo sapiens) [12]) was “inactive” each time. For the same compound, in [2], the MCC at 72 h was 79 µM. Moreover, the EC50 with Influenza A virus [3] and in the data set with Influenza A virus [4] was greater than 100 µM in each case. Moreover, the CC50 at 72 h in data set [6] turned out to be 49 µM.
As for `CCCCCCCCCCCCCCCCCCCCCCOCC(C)(COCCCCCCCCCCCCCCCCCCCCCC)CO[C@]1(C(=O)O)C[C@H](OS(=O)(=O)O)[C@@H](NC(C)=O)[C@H]([C@H](O)[C@@H](COS(=O)(=O)O)OS(=O)(=O)O)O1`, the inhibition in data set [13] turned out to be 96%.
In the case of `COC(=O)C[C@H](NC(=O)OCc1ccccc1)C(=O)N(C1CC1)C1(C(=O)NCc2ccccc2)CCN(Cc2ccccc2)CC1`, the inhibition entry (in data set [8]; in data set [9]; in data set [10]; in data set [11]; at Trypsin (Homo sapiens) [12]) was “inactive” throughout. Also, the MCC at 72 h in data set [2] stood at 20 µM. Further, the EC50 with Influenza A virus [3] was found to be 2 µM; in the data set on Influenza A virus [4], 1.8 µM. In addition, in [14], the selectivity ratio came out at 40. In addition, the CC50 at 72 h in [6] is 8.1 µM.
For the compound `Cc1onc(-c2ccccc2)c1C(=O)N1CCN(c2ccc([N+](=O)[O-])cc2Cl)CC1`, in the data set with Influenza A virus [15], the result was Active.
In the case of `CN(C)C(=O)COC(=O)Cc1ccc(OC(=O)c2ccc(NC(=N)N)cc2)cc1`, the inhibition (against Trypsin (Homo sapiens) [16]; in data set [17]) was 90% each time.
With `CC(C)(C)OC(=O)N[C@@H](CC(N)=O)C(=O)N(Cc1ccc(F)cc1)C1(C(=O)NCc2ccccc2)CCN(Cc2ccccc2)CC1`, the inhibition entry (in [8]; in data set [9]; in [10]; in data set [11]; at Trypsin (Homo sapiens) [12]) was “inactive” in each case. Further, the MCC at 72 h in data set [2] is greater than 100 µM. In addition, the EC50 with Influenza A virus [3] was 1.8 µM; in the data set with Influenza A virus [4], 2.1 µM. In addition, the selectivity ratio in data set [14] is 26. Besides, in data set [6], the CC50 at 72 h was greater than 100 µM.
As for `CC(C)C[C@H](NC(=O)[C@@H]1C[C@H]1C(=O)O)C(=O)NCCCCNC(=N)N`, the inhibition entry in data set [18] and in data set [19] was “Active” throughout. Also, the inhibition in data set [20] came to 50%.
Regarding `COC(=O)C[C@H](NC(=O)OC(C)(C)C)C(=O)N(Cc1ccc(Cl)cc1)C1(C(=O)NCc2ccccc2)CCN(Cc2ccccc2)CC1`, in data set [2], the MCC at 72 h is 100 µM. The EC50 in the data set with Influenza A virus [3] and with Influenza A virus [4] was 1.6 µM throughout. Besides, the selectivity ratio in [14] was no more than 10. Also, in [6], the CC50 at 72 h worked out at 63 µM.
Turning to `COC(=O)C[C@H](NC(=O)OC(C)(C)C)C(=O)N(Cc1ccccc1)C1(C(=O)NCc2ccccc2)CCN(Cc2ccccc2)CC1`, the MCC at 72 h in [2] is greater than 100 µM. Further, the EC50 in the data set with Influenza A virus [3] was determined as 9.3 µM; in the data set on Influenza A virus [4], 10 µM. Moreover, the selectivity ratio in data set [14] was no more than 10. The CC50 at 72 h in data set [6] is greater than 100 µM.
Turning to `COC(=O)C[C@H](NC(=O)OC(C)(C)C)C(=O)N(Cc1cccc(F)c1)C1(C(=O)NCc2ccccc2)CCN(Cc2ccccc2)CC1`, in data set [2], the MCC at 72 h is 47 µM. In addition, the figures for the EC50 in the data set with Influenza A virus [3] and in the data set on Influenza A virus [4] were 4.1 µM and 5.2 µM, respectively. For the same compound, in data set [14], the selectivity ratio is no more than 10. In addition, in [6], the CC50 at 72 h is 75 µM.
